This is an account of results in ChEMBL document CHEMBL3044729, “Quantitative structure-activity relationships of pine weevil antifeedants, a multivariate approach” (2007).

The test relates to Hylobius abietis. The test is described as follows: Antifeedant activity against Hylobius abietis (pine weevil ) in compound pre-treated Scots pine twig at 50 mM measured after 24 hr by two-choice laboratory bioassay. It counts as functional.

Consider `COC(=O)CCc1ccc(C(C)=O)cc1`, for which the AFI was determined as 14%.

With `COC(=O)CCc1ccc(N)cc1`, the AFI is listed as 29%.

For `COc1ccc(C(=O)OC(C)C)c(OC)c1` [ISOPROPYL 2,4-DIMETHOXYBENZOATE], the AFI is 96%.

Consider `COc1cc(OC)cc(C(=O)O)c1` [3,5-DIMETHOXYBENZOIC ACID], for which the AFI is -4%.

`COC(=O)c1ccc(O)c(OC)c1` [METHYL VANILLATE]: the AFI came out at 53%.

As for `COc1ccc(O)c(C(=O)O)c1`, the AFI is reported as 17%.

As for `COC(=O)CCc1ccc(O)c(OC)c1` [DIHYDROFERULIC ACID METHYL ESTER], the AFI was 54%.

Take `COc1ccc(CCC(=O)OC(C)C)cc1`: the AFI worked out at 83%.

Take `COC(=O)c1cccc(OC)c1OC` [METHYL 2,3-DIMETHOXYBENZOATE]: the AFI is 73%.

Consider `CCOC(=O)/C=C/c1ccccc1` [ETHYL CINNAMATE], for which the AFI was determined as 83%.

On to `C=CCc1ccc(OC(=O)c2cc(OC)cc(OC)c2)c(OC)c1`, for which the AFI was 17%.

As for `COC(=O)c1cc(O)cc(O)c1` [METHYL 3,5-DIHYDROXYBENZOATE], the AFI turned out to be 23%.

Turning to `COC(=O)c1cc(O)c(O)c(O)c1` [GALLIC ACID METHYL ESTER], the AFI is reported as 21%.

On to `O=C(O)c1ccc(O)cc1` [PARABEN], for which the AFI is on record as 31%.

Take `COC(=O)/C=C/c1ccc(N(C)C)cc1`: the AFI turned out to be 49%.

Turning to `COC(=O)c1ccc(OC)cc1` [METHYL 4-METHOXYBENZOATE], the AFI is given as 54%.

As to `CCCCCCCCCCCCOC(=O)c1ccc(OC)c(OC)c1` [DODECYL 3,4-DIMETHOXYBENZOATE], the AFI came out at 23%.

With `COC(=O)CCc1cccc(OC)c1`, the AFI was 95%.

`CCOC(=O)CC(O)c1ccccc1Br` (racemic): the AFI is 59%.

Turning to `COC(=O)c1c(O)cccc1OC` [METHYL 2-HYDROXY-6-METHOXYBENZOATE], the AFI is listed as 74%.

With `CCOC(=O)CC(O)c1ccccc1` (racemic), the AFI is 36%.

Regarding `COC(=O)CCc1ccc(Cl)c(Cl)c1`, the AFI was determined as 98%.

For the molecule `COC(=O)c1c(C)cc(O)c(C)c1O` [ATRARIC ACID], the AFI was 31%.

On to `COC(=O)CCc1cccc(C)c1`, for which the AFI is reported as 90%.

On to `O=C(O)c1cc(O)cc(O)c1` [3,5-DIHYDROXYBENZOIC ACID], for which the AFI was 41%.

Turning to `CCOC(=O)CCc1ccccc1` [ETHYL 3-PHENYLPROPANOATE], the AFI is 73%.

As for `COC(=O)CCc1ccc(Br)cc1`, the AFI turned out to be 97%.

In the case of `COC(=O)c1ccc2c(c1)OCO2` [METHYL 3,4-METHYLENEDIOXYBENZOATE], the AFI is 57%.

Regarding `CCOC(=O)C(Br)C(Br)c1ccccc1` (racemic; form 2), the AFI is listed as 45%.

Turning to `COc1cc(OC)cc(C(=O)OCC(F)(F)F)c1`, the AFI turned out to be 86%.

`CCCOC(=O)/C=C/c1ccccc1` [PROPYL CINNAMATE]: the AFI is 85%.

Take `COc1ccccc1CCC(=O)O`: the AFI came out at 12%.

Take `COC(=O)CCc1cc(OC)cc(OC)c1`: the AFI is recorded as 89%.

Take `COC(=O)c1cccc(O)c1OC` [METHYL 3-HYDROXY-2-METHOXYBENZOATE]: the AFI is 75%.

Take `COC(=O)CCc1ccc(C(F)(F)F)cc1`: the AFI came out at 57%.

Regarding `CCCCOc1ccc(CCC(=O)OC)cc1`, the AFI is on record as 70%.

Turning to `COC(=O)CCc1cc(OC)c(OC)c(OC)c1`, the AFI amounted to 26%.

On to `COC(=O)c1cc(C)cc(C)c1` [METHYL 3,5-DIMETHYLBENZOATE], for which the AFI was 61%.

In the case of `CCCCCCCCc1ccc(C(=O)OC)cc1`, the AFI is recorded as 35%.

As for `COC(=O)CCc1ccc(Cl)cc1`, the AFI was 100%.

On to `CCOC(=O)C(Br)C(Br)c1ccccc1` (racemic; form 1), for which the AFI was found to be 75%.

Consider `COC(=O)/C=C/c1cccc(OC)c1OC`, for which the AFI was determined as 99%.

Turning to `O=C(O)c1ccccc1O` [SALICYLIC ACID], the AFI came to 21%.

For `COC(=O)c1cc(O)ccc1OC`, the AFI is -3%.

With `COC(=O)/C=C/c1cc(OC)cc(OC)c1`, the AFI was 72%.

On to `COC(=O)/C=C/c1ccc(C(F)(F)F)cc1`, for which the AFI amounted to 62%.

With `COC(=O)c1cc(OC)ccc1O` [METHYL 2-HYDROXY-5-METHOXYBENZOATE], the AFI turned out to be 74%.

With `COC(=O)CCc1ccc(C(C)C)cc1`, the AFI worked out at 94%.

For `CC/C=C/CCOC(=O)c1cc(OC)cc(OC)c1`, the AFI is listed as 62%.

Consider `COC(=O)CCc1ccc(N(C)C)cc1`, for which the AFI amounted to 84%.

Consider `COc1cc(OC)cc(C(=O)OCCCc2ccc(OC)c(OC)c2)c1`, for which the AFI is 41%.

Consider `COC(=O)c1ccc(OC)c(OC)c1OC` [METHYL 2,3,4-TRIMETHOXYBENZOATE], for which the AFI is given as 54%.

On to `COC(=O)CCc1ccccc1C`, for which the AFI is given as 91%.

Take `COC(=O)/C=C/c1ccc([N+](=O)[O-])cc1`: the AFI is reported as 32%.

For `COC(=O)c1ccc(OC)c(Cl)c1` [METHYL 3-CHLORO-4-METHOXYBENZOATE], the AFI was found to be 36%.

`Cc1ccccc1CCC(=O)O`: the AFI amounted to 47%.

With `CC(C)OC(=O)/C=C/c1ccccc1` [ISOPROPYL CINNAMATE], the AFI stood at 96%.

As for `COc1cc(C(=O)O)cc(OC)c1O` [SYRINGIC ACID], the AFI is recorded as 8%.

In the case of `COc1ccc(C(=O)O)c(O)c1` [4-METHOXYSALICYLIC ACID], the AFI amounted to 24%.

Regarding `COC(=O)/C=C/c1ccc(OC)c(OC)c1`, the AFI was found to be 36%.

In the case of `CC(=O)Oc1cc(C(=O)O)cc(OC(C)=O)c1OC(C)=O` [3,4,5-TRIACETOXYBENZOIC ACID], the AFI is on record as 14%.

On to `COC(=O)c1ccc(O)cc1O` [METHYL 2,4-DIHYDROXYBENZOATE], for which the AFI is listed as 46%.

For the molecule `COC(=O)c1cc(O)cc(OC)c1`, the AFI is given as 54%.

As to `COC(=O)C(Br)C(Br)c1ccccc1` (racemic), the AFI was determined as 50%.

For `COC(=O)/C=C/c1ccc(OC)cc1OC`, the AFI is 96%.

As for `COC(=O)CCc1ccc(C)cc1C`, the AFI amounted to 100%.

For `COc1cc(C(=O)O)ccc1O` [VANILLIC ACID], the AFI amounted to 48%.

Take `CC(C)OC(=O)c1ccc(O)cc1` [ISOPROPYL 4-HYDROXYBENZOATE]: the AFI is given as 63%.

Regarding `COC(=O)c1ccc(O)cc1OC` [METHYL 4-HYDROXY-2-METHOXYBENZOATE], the AFI is 35%.

As for `O=C(O)c1ccc2c(c1)OCO2` [PIPERONYLIC ACID], the AFI was 14%.

Turning to `COC(=O)c1cc(Br)cc(Br)c1` [METHYL 3,5-DIBROMOBENZOATE], the AFI was determined as 50%.

Turning to `COC(=O)c1cc(OC)ccc1OC` [METHYL 2,5-DIMETHOXYBENZOATE], the AFI turned out to be 89%.

As to `COc1cc(C(N)=O)cc(OC)c1OC` [3,4,5-TRIMETHOXYBENZAMIDE], the AFI is given as -2%.

For `COC(=O)CCc1ccccc1OC`, the AFI worked out at 97%.

Take `COC(=O)c1cccc(OC)c1O` [METHYL 2-HYDROXY-3-METHOXYBENZOATE]: the AFI is reported as 95%.

`COC(=O)c1ccc(O)cc1` [METHYLPARABEN]: the AFI amounted to 34%.

`COC(=O)CCc1ccc(OC)c(OC)c1`: the AFI stood at 35%.

With `COC(=O)CCc1cccc(OC)c1OC`, the AFI was found to be 86%.

For `COC(=O)CCc1ccc(C)cc1`, the AFI is recorded as 99%.

Take `COC(=O)CCc1ccc(O)cc1` [4-HYDROXYHYDROCINNAMIC ACID METHYL ESTER]: the AFI amounted to 21%.

For `COC(=O)C(C)Cc1ccccc1` (racemic), the AFI is 79%.

`COC(=O)c1c(OC)cc(OC)cc1OC` [METHYL 2,4,6-TRIMETHOXYBENZOATE]: the AFI came out at 55%.

For the molecule `COC(=O)/C=C/c1ccc(C)cc1`, the AFI amounted to 76%.

On to `COc1cccc(C(=O)O)c1O`, for which the AFI was 22%.

Regarding `COC(=O)CCc1ccc(F)cc1`, the AFI turned out to be 98%.

`CCNC(=O)c1cc(OC)cc(OC)c1`: the AFI is reported as 86%.

For the molecule `CCC(C)OC(=O)/C=C/c1ccccc1` (stereo not drawn) [SEC-BUTYL CINNAMATE], the AFI is 48%.

`COC(=O)c1ccc(O)c(O)c1` [METHYL PROTOCATECHUATE]: the AFI is on record as -7%.

On to `COC(=O)/C=C/c1ccc(C(C)C)cc1`, for which the AFI was 92%.

In the case of `COc1ccc(C(=O)O)cc1OC` [VERATRIC ACID], the AFI came out at 7%.

For `COC(=O)c1ccccc1OC` [METHYL 2-METHOXYBENZOATE], the AFI was 80%.

For `COC(=O)c1c(OC)cccc1OC` [METHYL 2,6-DIMETHOXYBENZOATE], the AFI is 51%.

For the molecule `COC(=O)c1cc(OC)cc(OC)c1` [METHYL 3,5-DIMETHOXYBENZOATE], the AFI is 95%.

For `COC(=O)c1ccc(OC)c(O)c1` [ISOVANILLIC ACID METHYL ESTER], the AFI stood at 65%.

With `COC(=O)c1cc([N+](=O)[O-])cc([N+](=O)[O-])c1` [METHYL 3,5-DINITROBENZOATE], the AFI came to 34%.

For the molecule `COC(=O)CCc1ccccc1` [METHYL 3-PHENYLPROPANOATE], the AFI is 44%.

Turning to `COC(=O)CCc1ccc(OC)cc1`, the AFI was determined as 96%.

With `COC(=O)c1cccc(OC)c1` [METHYL 3-METHOXYBENZOATE], the AFI is 89%.

For `CCSC(=O)c1cc(OC)cc(OC)c1`, the AFI is recorded as 74%.

Consider `COc1ccc(C(=O)O)cc1O` [ISOVANILLIC ACID], for which the AFI is given as 51%.

With `COC(=O)c1ccc(OC)cc1OC` [METHYL 2,4-DIMETHOXYBENZOATE], the AFI is reported as 99%.

In the case of `CCCCOC(=O)/C=C/c1ccccc1` [BUTYL CINNAMATE], the AFI was determined as 38%.

In the case of `COC(=O)CCc1ccc(OC)c(Br)c1`, the AFI came out at 68%.
